The source of these data is PubChem BioAssay AID330 (DTP/NCI, 2004).

“And” between values parts separate entries of the source, which are not always exact repeats. Identical values can stand only once. Toxic doses and inconclusive results are not listed.

The experiment relates to P388 leukemia ip, CD2F1 mice, survival T/C. The experiment in a line: NCI In Vivo Anticancer Drug Screen. Data for tumor model P388 Leukemia (intraperitoneal) in CD2F1 (CDF1) mice. The note with it: endpoint: median survival time, higher = longer survival. In a few lines: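 Mice carrying the transplanted tumor received test compound or vehicle. Survival was recorded in each group, and the value is the treated-group measurement divided by that of the vehicle-treated control group.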

Setting [1] is: dose: 50.0 mg/kg/injection, schedule: Q01DX005 (ip), vehicle: Klucel (hydroxypropylcellulose) (HPC).
[2] abbreviates: dose: 100.0 mg/kg/injection, schedule: Q01DX005 (ip), vehicle: Klucel (hydroxypropylcellulose) (HPC).
The mark [3] stands for this setting: dose: 200.0 mg/kg/injection, schedule: Q01DX005 (ip), vehicle: Klucel (hydroxypropylcellulose) (HPC).
Setting [4] is: dose: 60.0 mg/kg/injection, schedule: Q01DX005 (ip), vehicle: saline with Tween-80.
[5] abbreviates: dose: 120.0 mg/kg/injection, schedule: Q01DX005 (ip), vehicle: saline with Tween-80.
[6] abbreviates: dose: 12.5 mg/kg/injection, schedule: Q01DX005 (ip), vehicle: Klucel (hydroxypropylcellulose) (HPC).
Setting [7] is: dose: 25.0 mg/kg/injection, schedule: Q01DX005 (ip), vehicle: Klucel (hydroxypropylcellulose) (HPC).
Setting [8] is: dose: 50.0 mg/kg/injection, schedule: Q01DX005 (ip), vehicle: saline.

Turning to `CS(=O)(=O)Nc1cccc2c1-c1ccccc1C2=O`, the T/C runs as follows: under setting [1], 96 % of control; under setting [2], 101 % of control; under setting [3], 88 % of control.

Regarding `CCCCCCOC(=O)c1ccc(Br)cc1`, the T/C is, setting by setting: (dose: 50.0 mg/kg/injection, schedule: Q01DX009 (ip), vehicle: Klucel (hydroxypropylcellulose) (HPC)) 104 % of control; (dose: 100.0 mg/kg/injection, schedule: Q01DX009 (ip), vehicle: Klucel (hydroxypropylcellulose) (HPC)) 101 % of control; (dose: 200.0 mg/kg/injection, schedule: Q01DX009 (ip), vehicle: Klucel (hydroxypropylcellulose) (HPC)) 93 % of control.

As for `CCc1nc(N)nc(N)c1-c1ccc(N2CCNCC2)c([N+](=O)[O-])c1`, the T/C by setting is: under setting [4], 106 % of control; under setting [5], 112 % of control.

For the molecule `Cc1ncn2ncnc2c1C`, the T/C (dose: 25.0 mg/kg/injection, schedule: Q04DX003 (ip), vehicle: saline with Tween-80) is 103 % of control; the T/C (dose: 50.0 mg/kg/injection, schedule: Q04DX003 (ip), vehicle: saline with Tween-80) is 104 % of control; the T/C (dose: 100.0 mg/kg/injection, schedule: Q04DX003 (ip), vehicle: saline with Tween-80) was 101 % of control and 93 % of control.

On to `Cc1nc2[nH]cc(-c3ccccc3)c2c(=N)n1-c1ccccc1`, for which the T/C reads like this: under setting [6], 102 % of control; under setting [7], 106 % of control; under setting [1], 100 % of control and 104 % of control.

With `COc1ccc(C2C3C(=O)NC(=O)C2C(=O)NC3=O)cc1OC` (stereo unspecified), the T/C runs as follows: (dose: 60.0 mg/kg/injection, schedule: Q01DX005 (ip), vehicle: saline) 101 % of control; (dose: 120.0 mg/kg/injection, schedule: Q01DX005 (ip), vehicle: saline) 108 % of control; (dose: 240.0 mg/kg/injection, schedule: Q01DX005 (ip), vehicle: saline) 90 % of control.

On to `N[C@H](C(=O)O)[C@H]1ON=C(Cl)[C@@H]1O`, for which the T/C (dose: 0.13 mg/kg/injection, schedule: Q01DX009 (ip), vehicle: saline) is 104 % of control and 98 % of control; the T/C (dose: 0.25 mg/kg/injection, schedule: Q01DX009 (ip), vehicle: saline) is 106 % of control and 113 % of control; the T/C (dose: 0.5 mg/kg/injection, schedule: Q01DX009 (ip), vehicle: saline) is 112 % of control; the T/C (dose: 1.0 mg/kg/injection, schedule: Q01DX009 (ip), vehicle: saline) is 117 % of control and 121 % of control; the T/C (dose: 2.0 mg/kg/injection, schedule: Q01DX009 (ip), vehicle: saline) is 124 % of control; the T/C (dose: 4.0 mg/kg/injection, schedule: Q01DX009 (ip), vehicle: saline) was 153 % of control. In addition, the T/C was 153 % of control (dose: 8.0 mg/kg/injection, schedule: Q01DX009 (ip), vehicle: saline) and 198 % of control (dose: 16.0 mg/kg/injection, schedule: Q01DX009 (ip), vehicle: saline).

On to `N#CC1(N2CCCCC2)CCCCC1`, for which the T/C was 106 % of control (dose: 3.13 mg/kg/injection, schedule: Q01DX009 (ip), vehicle: Klucel (hydroxypropylcellulose) (HPC)); 103 % of control (dose: 6.25 mg/kg/injection, schedule: Q01DX009 (ip), vehicle: Klucel (hydroxypropylcellulose) (HPC)); 93 % of control (dose: 12.5 mg/kg/injection, schedule: Q01DX009 (ip), vehicle: Klucel (hydroxypropylcellulose) (HPC)).

On to `CSCCCNCc1ccccc1`, for which the T/C by setting is: under setting [8], 100 % of control; (dose: 100.0 mg/kg/injection, schedule: Q01DX005 (ip), vehicle: saline) 106 % of control.

For `CCCCCCCCCCCCCCCC[N+](C)(C)CCBr`, the T/C is 109 % of control and 100 % of control (dose: 3.13 mg/kg/injection, schedule: Q01DX009 (ip), vehicle: saline with Tween-80); 122 % of control and 93 % of control and 103 % of control (dose: 6.25 mg/kg/injection, schedule: Q01DX009 (ip), vehicle: saline with Tween-80); 115 % of control [middle of 4 runs] (dose: 12.5 mg/kg/injection, schedule: Q01DX009 (ip), vehicle: saline with Tween-80).

For `S=C(S)N(Cc1ccccc1)Cc1ccccc1` (tested in a mixture with another compound), the T/C was 105 % of control under setting [4]; 105 % of control under setting [5]; 101 % of control (dose: 240.0 mg/kg/injection, schedule: Q01DX005 (ip), vehicle: saline with Tween-80).

Take `Cc1ccc2c(c1)C(O)C(N)CCO2` (stereo unspecified): the T/C (dose: 100.0 mg/kg/injection, schedule: Q04DX003 (ip), vehicle: saline) was 100 % of control and the T/C (dose: 200.0 mg/kg/injection, schedule: Q04DX003 (ip), vehicle: saline) was 102 % of control.

For `CC(C)C(C(F)C(=O)OCc1ccccc1)N(Cc1ccccc1)Cc1ccccc1` (stereo unspecified), the T/C runs as follows: under setting [1], 98 % of control; under setting [2], 91 % of control; under setting [3], 89 % of control.

On to `O=C1Nc2ccccc2C1(N1CCCCC1)N1CCCCC1`, for which the T/C by setting is: (dose: 12.5 mg/kg/injection, schedule: Q01DX009 (ip), vehicle: saline) 99 % of control; (dose: 25.0 mg/kg/injection, schedule: Q01DX009 (ip), vehicle: saline) 90 % of control; (dose: 50.0 mg/kg/injection, schedule: Q01DX009 (ip), vehicle: saline with Tween-80) 101 % of control; (dose: 50.0 mg/kg/injection, schedule: Q01DX009 (ip), vehicle: saline) 92 % of control; (dose: 200.0 mg/kg/injection, schedule: Q01DX009 (ip), vehicle: saline with Tween-80) 86 % of control.

For `Nc1nc(Cl)nc(Nc2ccc(-c3cc4ccc(-c5ncc[nH]5)cc4[nH]3)cc2)n1`, the T/C (dose: 60.0 mg/kg/injection, schedule: Q01DX005 (ip), vehicle: Klucel (hydroxypropylcellulose) (HPC)) is 88 % of control; the T/C (dose: 120.0 mg/kg/injection, schedule: Q01DX005 (ip), vehicle: Klucel (hydroxypropylcellulose) (HPC)) is 88 % of control; the T/C (dose: 240.0 mg/kg/injection, schedule: Q01DX005 (ip), vehicle: Klucel (hydroxypropylcellulose) (HPC)) is 87 % of control.

As to `Nc1ccn(CC(=O)c2ccc(Cl)s2)c(=O)n1`, the T/C by setting is: (dose: 100.0 mg/kg/injection, schedule: Q04DX003 (ip), vehicle: water) 100 % of control; (dose: 200.0 mg/kg/injection, schedule: Q04DX003 (ip), vehicle: water) 100 % of control; (dose: 400.0 mg/kg/injection, schedule: Q04DX003 (ip), vehicle: water) 104 % of control.

Consider `N#C/C(=C1/OC(=N)C(c2ccc(Cl)cc2)C1=O)c1ccc(Cl)cc1` (stereo unspecified), for which the T/C was 110 % of control (dose: 50.0 mg/kg/injection, schedule: Q01DX005 (ip), vehicle: saline with Tween-80) and 99 % of control (dose: 100.0 mg/kg/injection, schedule: Q01DX005 (ip), vehicle: saline with Tween-80).

Regarding `CCN(CC)CCNc1cc(C)nc2c1ccc1c2ccc2c(NCCN(CC)CC)cc(C)nc21`, the T/C is, setting by setting: (dose: 12.5 mg/kg/injection, schedule: Q01DX009 (ip), vehicle: water) 104 % of control; (dose: 25.0 mg/kg/injection, schedule: Q01DX009 (ip), vehicle: water) 113 % of control; (dose: 50.0 mg/kg/injection, schedule: Q01DX009 (ip), vehicle: water) 97 % of control.

On to `CN(C)c1ccc2c(c1)Oc1cc(N(C)C)ccc1C21c2ccccc2C(=O)N1N`, for which the T/C is 100 % of control (dose: 100.0 mg/kg/injection, schedule: Q04DX002 (ip), vehicle: saline with Tween-80); 90 % of control (dose: 200.0 mg/kg/injection, schedule: Q04DX002 (ip), vehicle: saline with Tween-80); 90 % of control (dose: 400.0 mg/kg/injection, schedule: Q04DX002 (ip), vehicle: saline with Tween-80).

Turning to `COc1ccc(C2=CC3CCC(C2)N3C)cc1` (stereo unspecified), the T/C reads like this: (dose: 6.25 mg/kg/injection, schedule: Q01DX005 (ip), vehicle: Klucel (hydroxypropylcellulose) (HPC)) 96 % of control; under setting [6], 110 % of control; (dose: 12.5 mg/kg/injection, schedule: Q01DX005 (ip), vehicle: saline) 102 % of control; under setting [7], 110 % of control and 113 % of control; (dose: 25.0 mg/kg/injection, schedule: Q01DX005 (ip), vehicle: saline) 98 % of control; under setting [8], 94 % of control.
